In PubChem BioAssay (NCI):
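Five compound concentrations were applied to cells in 96-well plates for 48 hours; endpoints were derived by simple linear interpolation of the resulting dose-response curve. GI50 = concentration required for 50% inhibition of growth. Definition used: TGI = concentration required for complete inhibition of growth.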

Assays:
Experiment in all cases: NCI-60 cell line screen, 48 h
A498 renal = system: A498 renal
SW-620 colon = system: SW-620 colon
OVCAR-3 ovarian = system: OVCAR-3 ovarian
CAKI-1 renal = system: CAKI-1 renal
IGROV1 ovarian = system: IGROV1 ovarian
SF-268 CNS = system: SF-268 CNS
SK-MEL-2 melanoma = system: SK-MEL-2 melanoma
OVCAR-4 ovarian = system: OVCAR-4 ovarian
TK-10 renal = system: TK-10 renal
HCT-116 colon = system: HCT-116 colon

SMILES: COc1cc(/C=C2\C(=O)Nc3ccc(O)cc32)cc(OC)c1OC
- GI50 (A498 renal): 18.3 µM
- TGI (A498 renal): 40.6 µM
- GI50 (SW-620 colon): 10.5 µM
- TGI (SW-620 colon): > 100 µM
- GI50 (OVCAR-3 ovarian): 6.44 µM
- TGI (OVCAR-3 ovarian): 28.3 µM
- GI50 (CAKI-1 renal): 23.1 µM
- TGI (CAKI-1 renal): 83.1 µM
- GI50 (IGROV1 ovarian): 12.1 µM
- TGI (IGROV1 ovarian): 35.7 µM
- GI50 (SF-268 CNS): 6.49 µM
- TGI (SF-268 CNS): 26.8 µM
- GI50 (SK-MEL-2 melanoma): 13.6 µM
- TGI (SK-MEL-2 melanoma): 34.7 µM
- GI50 (OVCAR-4 ovarian): 11.1 µM
- TGI (OVCAR-4 ovarian): 55.7 µM
- GI50 (TK-10 renal): 40 µM
- TGI (TK-10 renal): > 100 µM

SMILES: CCOC(=O)/C(C#N)=c1/s/c(=C(\O)N/N=C/c2ccc(OC)cc2)c(=N)n1-c1ccccc1
- TGI (SW-620 colon): > 100 µM
- TGI (HCT-116 colon): > 100 µM
- TGI (OVCAR-3 ovarian): > 100 µM
- TGI (IGROV1 ovarian): > 100 µM
- TGI (SF-268 CNS): > 100 µM
- TGI (TK-10 renal): > 100 µM

SMILES: CS(=O)(=O)Sc1ccc(Cl)cc1
- TGI (A498 renal): 7.48 µM
- TGI (SW-620 colon): 25.3 µM
- TGI (HCT-116 colon): 18.6 µM
- TGI (OVCAR-3 ovarian): 19.3 µM
- TGI (CAKI-1 renal): 24.4 µM
- TGI (IGROV1 ovarian): 8 µM
- TGI (SF-268 CNS): 12.7 µM
- TGI (SK-MEL-2 melanoma): 25.6 µM
- TGI (OVCAR-4 ovarian): 29.7 µM
- TGI (TK-10 renal): 31.2 µM

SMILES: O[C@@H]1CCCCN1Cc1cc2cc3c(cc2c2cc(OCc4ccccc4)ccc12)OCO3
- GI50 (A498 renal): 1.41 µM
- TGI (A498 renal): 2.75 µM
- GI50 (SW-620 colon): 1.17 µM
- TGI (SW-620 colon): 2.7 µM
- GI50 (HCT-116 colon): 1.04 µM
- TGI (HCT-116 colon): 2.21 µM
- GI50 (OVCAR-3 ovarian): 1.5 µM
- TGI (OVCAR-3 ovarian): 2.95 µM
- GI50 (CAKI-1 renal): 1.57 µM
- TGI (CAKI-1 renal): 2.91 µM
- GI50 (IGROV1 ovarian): 1.68 µM
- TGI (IGROV1 ovarian): 3.11 µM
- GI50 (SF-268 CNS): 1.26 µM
- TGI (SF-268 CNS): 2.61 µM
- GI50 (SK-MEL-2 melanoma): 1.7 µM
- TGI (SK-MEL-2 melanoma): 3.16 µM
- GI50 (OVCAR-4 ovarian): 1.45 µM
- TGI (OVCAR-4 ovarian): 2.9 µM
- GI50 (TK-10 renal): 2.08 µM
- TGI (TK-10 renal): 4.05 µM

SMILES: CCCCCCCCCCCCOC(=N)N1CCOCC1
- TGI (A498 renal): > 52.3 µM
- TGI (SW-620 colon): 16.6 µM
- TGI (HCT-116 colon): 22.6 µM
- TGI (OVCAR-3 ovarian): 30.3 µM
- TGI (CAKI-1 renal): 17.3 µM
- TGI (IGROV1 ovarian): 27.7 µM
- TGI (SF-268 CNS): 30.4 µM
- TGI (SK-MEL-2 melanoma): 23.9 µM
- TGI (OVCAR-4 ovarian): 21.2 µM
- TGI (TK-10 renal): 31.6 µM

SMILES: Nc1ccc(Oc2ccc(C3(c4ccc(Oc5ccc(N)c(O)c5)cc4)C4CC5CC(C4)CC3C5)cc2)cc1O
- TGI (A498 renal): 31 µM
- TGI (OVCAR-3 ovarian): 3.35 µM
- TGI (CAKI-1 renal): 5.03 µM
- TGI (SK-MEL-2 melanoma): 3.88 µM
- TGI (OVCAR-4 ovarian): 24.9 µM
- TGI (TK-10 renal): 4.54 µM

SMILES: O=c1cc(O)c1=O
- TGI (A498 renal): > 100 µM
- TGI (SW-620 colon): > 100 µM
- TGI (HCT-116 colon): > 100 µM
- TGI (OVCAR-3 ovarian): > 100 µM
- TGI (CAKI-1 renal): > 100 µM
- TGI (IGROV1 ovarian): > 100 µM
- TGI (SF-268 CNS): > 100 µM
- TGI (SK-MEL-2 melanoma): > 100 µM
- TGI (OVCAR-4 ovarian): > 100 µM
- TGI (TK-10 renal): > 100 µM

SMILES: CC(C)OP(=O)(OC(C)C)C(=Nc1ccc(N=C(NNc2ccc([N+](=O)[O-])cc2)P(=O)(OC(C)C)OC(C)C)cc1)NNc1ccc([N+](=O)[O-])cc1
- TGI (A498 renal): > 100 µM
- TGI (HCT-116 colon): > 100 µM
- TGI (OVCAR-3 ovarian): > 100 µM
- TGI (CAKI-1 renal): > 100 µM
- TGI (IGROV1 ovarian): > 100 µM
- TGI (SF-268 CNS): > 100 µM
- TGI (SK-MEL-2 melanoma): > 100 µM
- TGI (OVCAR-4 ovarian): > 100 µM
- TGI (TK-10 renal): > 100 µM
